Data from patent publication US7144893B2, “4-aryl quinols and analogs thereof as therapeutic agents” (Cancer Research Technology Limited, priority 2001, dated 2006).
≈ marks a conversion by molar mass, not a printed value.

How the values were obtained:
[1] = test system: 60 human cancer cell lines; assay: cells; type: cell-based
Experimental: (§1) Compounds were tested for in vitro activity (48 h drug exposure) across 60 human cancer cell lines through the National Cancer Institute (NCI) Developmental Therapies Screening Program (Boyd et al., 1995).

renal sub-panel = assay: cells; type: cell-based; settings: Homo sapiens, 60 cell, read-out: mean LC50 in renal sub-panel
Experimental: as §1

colon sub-panel = assay: cells; type: cell-based; settings: Homo sapiens, SW-620, read-out: mean LC50 in colon sub-panel
Experimental: as §1

RXF 631L = assay: In vitro propidium iodide cytotoxicity assay; type: cell-based, human; settings: mean ± S.D.
Experimental: (§2) This assay was performed essentially according to the method described by Dengler et al., 1995. Human tumor cells (see Table 2) were plated in 96 well flat-bottomed microtiter plates (50 μL cell suspension, 1×10^5 or 5×10^4 cells/mL) and additional 50 μL of culture medium were added. After a 24 hr recovery, 50 μL of culture medium containing 50 μg/mL gentamycin was added into the 6 control wells or medium containing the test drug ([…]) was added to the wells. Each drug concentration was plated in triplicate. Following 3-6 days of incubation, depending on cell doubling time, a modified propidium iodide (PI) assay was performed. Culture medium was replaced by fresh medium and 50 μL of an aqueous propidium iodide solution (25 μg/mL) were added to each well. […] The fluorescence signal correlates with the numbers of dead cells. Fluorescence (FU1) was measured using a Millipore Cytofluor 2350 microplate reader (excitation 530 nm, emission 620 nm). Microplates were then kept at -18° C. for 24 hr, yielding a total cell kill. After thawing of the plates and a second fluorescence measurement (FU2), the amount of viable cells was calculated by subtraction of […]). Growth inhibition was expressed as treated/control ×100 (% T/C) (that is, growth inhibition at a given concentration is represented as a percentage of treated cell growth over control cell growth). Inhibiting concentrations (IC) were determined by plotting compound concentration versus cell viability. Mean IC50, IC70, and IC90 values were calculated for each individual cell line.

RXF 393NL = assay: In vitro propidium iodide cytotoxicity assay; type: cell-based, human; settings: mean ± S.D.
Experimental: as §2

RXF 944L = assay: In vitro propidium iodide cytotoxicity assay; type: cell-based, human; settings: mean ± S.D.
Experimental: as §2

cellular glutathione = assay: Cellular glutathione; type: cell-based
[2] = test system: MCF-7 (wt p53) and MDS 468 (mut p53) (breast cancer); assay: Potency in MCF-7 (wt p53) and MDS 468 (mut p53); type: cell-based
apoptotic events = assay: Induction of apoptotic events; type: cell-based; settings: after lag phase (48 h)
[3] = test system: human renal tumor xenograft RXF 393; assay: In vivo antitumor activity, renal tumor xenograft; settings: for DT (tumor doubling time) / T/C (optimal test/control): days 1, 5; for GD (growth delay): days 1, 5, difference in days to double initial tumor volume; for BWC (maximal body weight change): days 1, 5, model induces cachexia

Question: What does the source list for `O=C1C=CC(O)(c2nc3ccccc3s2)C=C1` [Q05, 4-(Benzothiazol-2-yl)-4-hydroxy-2,5-cyclohexadien-1-one]?
Answer: CC50 ([1]; Homo sapiens, 60 cell, 48 h, read-out: mean LC50): 3.39 µM; GI50 ([1]; Homo sapiens, 60 cell, Table 5): 0.29 µM; GI50 ([1]; Homo sapiens, mean over NCI 60 cell panel, 48 h drug exposure): 0.23 µM; mean log10GI50 ([1]; NCI analysis): −6.63; log10LC50 ([1]; NCI analysis, certain colon and renal cells lines): < −6.0; mean LC50 (renal sub-panel): 1.57 µM; LC50 (colon sub-panel): 1.76 µM; IC50 (RXF 631L; Homo sapiens): 0.37 mg/L (≈ 1.52 µM); IC90 (RXF 631L; Homo sapiens): 0.84 mg/L (≈ 3.45 µM); Mean IC70 (RXF 631L): 0.56 N.E. μg/mL; IC50 (RXF 393NL; Homo sapiens): 0.34 ± 0.03 mg/L (≈ 1.4 µM); IC90 (RXF 393NL; Homo sapiens): 8.63 ± 5.4 mg/L (≈ 35.5 µM); Mean IC70 (RXF 393NL): 0.67 ± 0.09 mg/L; IC50 (RXF 944L; Homo sapiens): 0.265 ± 0.06 mg/L (≈ 1.09 µM); IC90 (RXF 944L; Homo sapiens): 0.87 ± 0.09 mg/L (≈ 3.58 µM); Mean IC70 (RXF 944L): 0.48 ± 0.08 mg/L; effect on cellular glutathione (cellular glutathione): depletes cellular glutathione; relative potency MCF-7 (wt p53) and MDS 468 (mut p53) [2]: equi-potent; apoptosis induction (apoptotic events): induces apoptotic events; DT (tumor doubling time) ([3]; 10 mg/kg i.p.): 3.0; T/C (optimal test/control) ([3]; 10 mg/kg i.p.): 63; GD (growth delay) ([3]; 10 mg/kg i.p.): 0.9; BWC (maximal body weight change) ([3]; 10 mg/kg i.p.): −16; DT (tumor doubling time) ([3]; 15 mg/kg i.p.): 2.6; T/C (optimal test/control) ([3]; 15 mg/kg i.p.): 56; GD (growth delay) ([3]; 15 mg/kg i.p.): 0.5; BWC (maximal body weight change) ([3]; 15 mg/kg i.p.): −19
